Test results: patent EP0164699A2, “1,2-Beta-methylene-4-androstene and 4,6-androstadiene-3,17-dione” (SCHERING AKTIENGESELLSCHAFT, priority 1984, dated 1985)

System: Aromatase
Assay: Aromatase inhibition: reduction of PMSG-stimulated estradiol secretion in rats (serum estradiol by radioimmunoassay)
Format: in vivo, Ratten
Details: serum of 20-day-old female rats pretreated 7 times with 100 I.U. PMSG s.c.; test substance injected 1 h before and 8 h after last PMSG; killed 24 h after last PMSG; comparison with substance A
Excerpt: Die durch PMSG (Pregnant Mare's Serum Gonadotropin) vermehrte Sekretion von Östradiol kann durch Applikation von Aromatasehemmern vermindert werden.
Versuch und Auswertung wurden wie folgt durchgeführt: • 20 Tage alte weibliche Ratten wurden alle 2 Tage insgesamt 7 mal mit 100 I.U. PMSG subcutan vorbehandelt. Eine Stunde vor und 8 Stunden nach der letzten PMSG-Applikation (d12) erhielten die Tiere die Testsubstanz durch Injektion. 24 Stunden nach der letzten PMSG-Applikation wurden die Tiere getötet. Im Serum wurde dann Östradiol radioimmunologisch bestimmt. In der folgenden Tabelle wird die Östradiolkonzentration in nMol/1 und die Standardabweichung angegeben. [formula]

C[C@]12CC[C@H]3[C@@H](CCC4=CC(=O)[C@H]5CC5[C@@]43C)[C@@H]1CCC2=O (some centres unmarked) [B, 1,2ß-Methylen-4-androsten-3,17-dion]
Östradiolkonzentration: einen stärkeren Abfall der Östradiolkonzentration bewirken als die bekannte Substanz A

C[C@]12CC[C@H]3[C@@H](C=CC4=CC(=O)[C@H]5CC5[C@@]43C)[C@@H]1CCC2=O (some centres unmarked) [C, 1,2ß-Methylen-androsta-4,6-dien-3,17-dion]
Östradiolkonzentration: einen stärkeren Abfall der Östradiolkonzentration bewirken als die bekannte Substanz A
